Measured values reported in patent US6057315A, “Antibacterial agents” (Warner-Lambertt Company, priority 1999, dated 2000).
Converted amounts (≈) assume the structure as drawn.

What was measured:
Test in all cases: Antibacterial MIC, standard microtitration
Type in all cases: cell-based
S. pyogenes C203 = details: Streptococcus pyogenes, Gram positive, read-out: Minimum Inhibitory Concentrations
Experimental: (§1) The compounds of the present invention were tested against an assortment of gram positive and gram negative organisms using standard microtitration techniques (Cohen, et. al. Antimicrobial Agents Chemother. 1985, 28, 766; Heifetz, et. al. Antimicrobial Agents Chemother. 1974, 6, 124) and the results are given in Table 1.

E. coli Tol C = details: Escherichia coli, read-out: Minimum Inhibitory Concentrations
Experimental: as §1

E. Coli MC4100 = details: Escherichia coli, Gram negative, read-out: Minimum Inhibitory Concentrations
Experimental: as §1

E. coli B90 = details: Escherichia coli, Gram negative, read-out: Minimum Inhibitory Concentrations
Experimental: as §1

B. subtilis RB1 = details: Bacillus subtilis, Gram positive, read-out: Minimum Inhibitory Concentrations
Experimental: as §1

S. aureus 29213 = details: Staphylococcus aureus, Gram positive, read-out: Minimum Inhibitory Concentrations
Experimental: as §1

Compound | MIC (S. pyogenes C203) [µg/mL] | MIC (E. coli Tol C) [µg/mL] | MIC (E. Coli MC4100) [µg/mL] | MIC (E. coli B90) [µg/mL] | MIC (B. subtilis RB1) [µg/mL] | MIC (S. aureus 29213) [µg/mL]
CCCc1c(O)cc2oc3cccn3c(=O)c2c1O [Example 6, 6,8-Dihydroxy-7-propyl-9H-pyrrolo[2,1-b][1,3]benzoxazin-9-one] | 4 (≈ 15.4 µM) | 2 (≈ 7.71 µM) | > 64 | 4 (≈ 15.4 µM) | 4 (≈ 15.4 µM) | 2 (≈ 7.71 µM)
CCCc1c(O)cc2oc3cc(Cl)c(C=O)n3c(=O)c2c1O [Example 9, 2-Chloro-6,8-dihydroxy-9-oxo-7-propyl-9H-pyrrolo[2,1-b][1,3]benzoxazine-1-carboxaldehyde] | 4 (≈ 12.4 µM) | 2 (≈ 6.22 µM) | > 64 | 4 (≈ 12.4 µM) | 1 (≈ 3.11 µM) | 4 (≈ 12.4 µM)
CCCc1c(O)cc2oc3cc(Cl)c(C=NO)n3c(=O)c2c1O [Example 10, 2-Chloro-6,8-dihydroxy-9-oxo-7-propyl-9H-pyrrolo[2,1-b][1,3]benzoxazine-1-carboxaldehyde, oxime] | 16 (≈ 47.5 µM) | 8 (≈ 23.8 µM) | > 64 | > 64 | 32 (≈ 95 µM) | 32 (≈ 95 µM)
CCCc1c(OC(C)=O)cc2oc3cc(Cl)cn3c(=O)c2c1OC(C)=O [Example 13, 6,8-Bis(acetyloxy)-2-chloro-7-propyl-9H-pyrrolo [2,1-b][1,3]benzoxazin-9-one] | 4 (≈ 10.6 µM) | 8 (≈ 21.2 µM) | > 64 | 64 (≈ 169 µM) | 8 (≈ 21.2 µM) | 4 (≈ 10.6 µM)
